Columns and labels:
Type in all cases: cell-based
TRPA1 = molecular target: T1, TRPA1 (Homo sapiens, UniProt O75762); experiment: Bulk calcium assay (Fluo-4) in HEK cells overexpressing TRPA1
T1 construct: host or cells: HEK TRex293
Method: (§1) HEK TRexTRPV1 were cultured in DMEM, 10% Fetal Bovine Serum, 2 mM Lglutamine, 10 μg/ml Blasticidin (Calbiochem, San Diego Calif.), 400 μg/ml Zeocin (InvivoGen, San Diego Calif.), where indicated transgene expression was induced using 1 μg/ml Tetracycline for 16-24 hrs. Unless otherwise indicated, basal expression of TRPV1 without induction was sufficient for these studies, and comparisons were made to untransfected HEK where needed. HEKTRex293 over-expressing human TRPV2, human TRPA1 and human TRPM8 were obtained from SB Drug Discovery (Glasgow, Scotland) and cultured as described above. The cannabinoids and terpenes were assayed in HEK cells that have been transfected with the TRPV1 ion channel protein. These cells are called HEK293-V1 cells.
(§2) Cells were washed and incubated with 0.2 micromolar Fluo-4 for 30 minutes at 37° C. in a standard modified Ringer's solution of the following composition (in mM): NaCl 145, KCl 2.8, CsCl 10, CaCl2 10, MgCl2 2, glucose 10, Hepes·NaOH 10, pH 7.4, 330 mOsm. Cells were transferred to 96-well plates at 50,000 cells/well and stimulated as indicated. Calcium signals were acquired using a Flexstation 3 (Molecular Devices, Sunnydale, USA). Data was analyzed using SoftMax® Pro 5 (Molecular Devices). Where indicated, nomically calcium-free external conditions were achieved by the preparation of 0 mM CaCl2 Ringer solution containing 1 mM EGTA.
(§3) Calcium responses mediated by TRPA1, TRPM8, TRPV2, and TRPV1 were tested by calcium assay in the cell culture system. Cells were washed and incubated with 0.2 μM fluo-4 acetoxymethyl ester (“Fluo-4”) for 30 minutes at 37° C. in a standard modified Ringer's solution of the following composition (in mM): NaCl 145, KCl 2.8, CsCl 10, CaCl2 10, MgCl2 2, glucose 10, Hepes·NaOH 10, pH 7.4, 330 mOsm. Cells were transferred to 96-well plates at 50,000 cells/well and stimulated with 10 μM myrcene diluted in DMSO. Vehicle (DMSO) was used as a negative control. Vehicle traces were subtracted from the myrcene traces for each cell line.
(§4) The potential for different cannabinoids to target specific TRP channels, or to co-target more than one channel type, are of potential therapeutic options for the treatment and management of pain. Comparison of the impacts of a variety of cannabinoid on overexpression systems for TRPV2, TRPM8, and TRPA1 were performed in a side-by-side fashion, under bulk calcium assays where the measurements with each trace representing averaged triplicates of 100,000 cells per sample. As shown in FIGS. 41-43 and summarized in Table 3, there are clear differences in responsiveness between cannabinoids at a single channel type than between channel types to a given cannabinoid.

TRPM8 = molecular target: T2, TRPM8 (Homo sapiens, UniProt Q7Z2W7); experiment: Bulk calcium assay (Fluo-4) in HEK cells overexpressing TRPM8
T2 construct: host or cells: HEK TRex293
T2 sequence (Q7Z2W7 whole entry): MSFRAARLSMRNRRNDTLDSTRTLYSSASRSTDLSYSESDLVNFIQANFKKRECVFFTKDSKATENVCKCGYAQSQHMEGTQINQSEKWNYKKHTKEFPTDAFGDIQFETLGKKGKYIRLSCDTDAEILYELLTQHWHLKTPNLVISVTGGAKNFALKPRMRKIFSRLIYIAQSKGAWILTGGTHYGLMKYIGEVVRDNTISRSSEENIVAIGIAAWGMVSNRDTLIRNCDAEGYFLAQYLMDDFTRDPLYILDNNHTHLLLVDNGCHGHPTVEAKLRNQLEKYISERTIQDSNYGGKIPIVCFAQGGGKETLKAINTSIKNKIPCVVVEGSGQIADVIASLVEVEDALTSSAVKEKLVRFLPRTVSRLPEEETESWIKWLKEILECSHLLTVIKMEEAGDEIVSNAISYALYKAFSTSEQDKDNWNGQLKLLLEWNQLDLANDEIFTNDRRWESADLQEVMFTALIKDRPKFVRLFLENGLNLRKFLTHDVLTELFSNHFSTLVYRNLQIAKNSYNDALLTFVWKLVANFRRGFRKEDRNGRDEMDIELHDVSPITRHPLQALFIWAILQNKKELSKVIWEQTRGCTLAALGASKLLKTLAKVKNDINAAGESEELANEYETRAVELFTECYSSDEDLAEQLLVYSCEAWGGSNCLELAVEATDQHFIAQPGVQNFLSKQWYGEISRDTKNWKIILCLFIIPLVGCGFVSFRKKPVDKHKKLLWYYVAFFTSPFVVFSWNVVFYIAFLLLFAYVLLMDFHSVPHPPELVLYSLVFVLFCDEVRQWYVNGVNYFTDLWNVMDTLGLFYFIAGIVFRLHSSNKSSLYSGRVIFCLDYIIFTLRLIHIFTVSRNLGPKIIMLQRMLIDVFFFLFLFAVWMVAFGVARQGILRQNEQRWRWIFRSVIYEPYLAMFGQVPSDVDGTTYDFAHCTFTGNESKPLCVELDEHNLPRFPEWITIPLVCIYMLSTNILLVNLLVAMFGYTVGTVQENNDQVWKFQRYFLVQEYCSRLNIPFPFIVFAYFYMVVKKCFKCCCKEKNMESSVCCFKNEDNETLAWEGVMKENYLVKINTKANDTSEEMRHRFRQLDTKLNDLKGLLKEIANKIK
Method: as §1, §2, §3, §4

TRPV1 = molecular target: T3, TRPV1 (Rattus norvegicus, UniProt O35433); experiment: Bulk calcium assay (Fluo-4) in HEK-TRPV1 overexpressing cells; settings: for mean maximal Ca^2+ signal RFU achieved 0-180 s (SD), TRPV1: bulk calcium assay; for calcium fluxes: dosing concentrations of 30-50 μM; for initiation of a calcium flux: single dose 10 μM, 1 mM external Ca2+
T3 construct: FLAG; expressed in transfected cells
T3 sequence (O35433 whole entry): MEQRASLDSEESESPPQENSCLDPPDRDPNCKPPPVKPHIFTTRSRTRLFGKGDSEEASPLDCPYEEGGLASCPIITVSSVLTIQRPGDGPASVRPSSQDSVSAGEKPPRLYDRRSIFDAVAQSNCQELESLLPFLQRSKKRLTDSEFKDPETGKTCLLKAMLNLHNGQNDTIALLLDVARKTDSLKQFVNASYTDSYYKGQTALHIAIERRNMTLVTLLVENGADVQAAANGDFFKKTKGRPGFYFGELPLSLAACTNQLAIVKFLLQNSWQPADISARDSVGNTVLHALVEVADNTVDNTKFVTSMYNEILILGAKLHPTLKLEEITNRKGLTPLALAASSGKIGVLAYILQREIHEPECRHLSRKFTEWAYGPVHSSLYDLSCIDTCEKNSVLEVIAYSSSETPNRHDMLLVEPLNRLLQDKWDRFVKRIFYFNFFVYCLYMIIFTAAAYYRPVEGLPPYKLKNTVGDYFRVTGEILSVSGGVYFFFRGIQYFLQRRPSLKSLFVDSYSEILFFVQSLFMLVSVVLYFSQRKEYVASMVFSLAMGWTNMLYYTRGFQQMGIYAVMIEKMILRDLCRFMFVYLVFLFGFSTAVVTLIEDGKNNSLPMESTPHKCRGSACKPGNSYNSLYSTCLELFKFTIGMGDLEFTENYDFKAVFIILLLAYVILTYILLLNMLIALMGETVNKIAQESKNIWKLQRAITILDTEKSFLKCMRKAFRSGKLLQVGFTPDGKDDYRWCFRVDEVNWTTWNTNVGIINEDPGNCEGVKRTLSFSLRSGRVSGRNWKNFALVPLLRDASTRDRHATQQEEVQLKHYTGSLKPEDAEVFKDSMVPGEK
Method: as §2
The cell culture system described in U.S. patent application Ser. No. 15/986,316 was used to test the TRPV1-mediated calcium response to various terpenes. The HEK293 cell line was stably transfected with the pcDNA6TR (Invitrogen, CA) plasmid (encoding the tetracycline-sensitive TREx repressor protein), and was maintained in DMEM+10% fetal bovine serum (inactivated at 55° C. for 1 h)+2 mM glutamine in humidified 5% CO2 atmosphere at 37° C. Selection pressure on the TRex 293 cells was maintained by continuous culture in 10 μg/ml Blasticidin (Sigma, St Louis, Mo.).
For production of TRex HEK293 cells with inducible expression of TRPV1, parental cells were electroporated with the rat TRPV1 cDNA in the pcDNA4TO vector and clonal cell lines were selected by limiting dilution in the presence of 400 μg/ml zeocin (Invitrogen, CA). TRPV1 expression was induced using 1 μg/ml tetracycline for 16 h at 37° C. Stable lines were screened for inducible protein expression using anti-FLAG Western blot, and inducible expression was confirmed.
Calcium responses mediated by TRPV1 were tested by calcium assay in the cell culture system. Cells were washed and incubated with 0.2 μM fluo-4 acetoxymethyl ester (“Fluo-4”) for 30 minutes at 37° C. in a standard modified Ringer's solution of the following composition (in mM): NaCl 145, KCl2.8, CsCl10, CaCl2 10, MgCl2 2, glucose 10, Hepes·NaOH 10, pH 7.4, 330 mOsm. Cells were transferred to 96-well plates at 50,000 cells/well and stimulated as indicated. The terpenes used were alpha-bisabool, alpha-pinene, myrcene, camphene, linalool, ocimene, humulene, beta-caryophyllene, beta-pinene, limonene, and nerolidol. The terpenes were diluted in DMSO and added to the wells to a final concentration of 10 μM. Vehicle (DMSO) alone was run as a negative control and subtracted from the terpene traces. Calcium signals were acquired using a Flexstation 3 (Molecular Devices, Sunnydale, USA). Data was analyzed using SoftMax® Pro 5 (Molecular Devices).
as §3
As shown in FIGS. 16A-H, a variety of cannabinoids were capable of initiating Ca^2+ fluxes in HEK-TRPV1 overexpressing cells, except for cannabigerol and cannabinol. Comparative responses to a single dose (10 μM concentration) of a variety of cannabinoids were made in the presence of 1 mM external Ca^2+, which are population-based, or bulk Ca^2+, measurements with each trace representing averaged triplicates of 100,000 cells per sample. […] For each of the cannabinoid compounds, dose responses at the population level were performed. […] The lower limit of detectable calcium responses in this system varied from 10-100 nM (CBDV, CBGA) to 1-10 μM.

T1 sequence (O75762 whole entry): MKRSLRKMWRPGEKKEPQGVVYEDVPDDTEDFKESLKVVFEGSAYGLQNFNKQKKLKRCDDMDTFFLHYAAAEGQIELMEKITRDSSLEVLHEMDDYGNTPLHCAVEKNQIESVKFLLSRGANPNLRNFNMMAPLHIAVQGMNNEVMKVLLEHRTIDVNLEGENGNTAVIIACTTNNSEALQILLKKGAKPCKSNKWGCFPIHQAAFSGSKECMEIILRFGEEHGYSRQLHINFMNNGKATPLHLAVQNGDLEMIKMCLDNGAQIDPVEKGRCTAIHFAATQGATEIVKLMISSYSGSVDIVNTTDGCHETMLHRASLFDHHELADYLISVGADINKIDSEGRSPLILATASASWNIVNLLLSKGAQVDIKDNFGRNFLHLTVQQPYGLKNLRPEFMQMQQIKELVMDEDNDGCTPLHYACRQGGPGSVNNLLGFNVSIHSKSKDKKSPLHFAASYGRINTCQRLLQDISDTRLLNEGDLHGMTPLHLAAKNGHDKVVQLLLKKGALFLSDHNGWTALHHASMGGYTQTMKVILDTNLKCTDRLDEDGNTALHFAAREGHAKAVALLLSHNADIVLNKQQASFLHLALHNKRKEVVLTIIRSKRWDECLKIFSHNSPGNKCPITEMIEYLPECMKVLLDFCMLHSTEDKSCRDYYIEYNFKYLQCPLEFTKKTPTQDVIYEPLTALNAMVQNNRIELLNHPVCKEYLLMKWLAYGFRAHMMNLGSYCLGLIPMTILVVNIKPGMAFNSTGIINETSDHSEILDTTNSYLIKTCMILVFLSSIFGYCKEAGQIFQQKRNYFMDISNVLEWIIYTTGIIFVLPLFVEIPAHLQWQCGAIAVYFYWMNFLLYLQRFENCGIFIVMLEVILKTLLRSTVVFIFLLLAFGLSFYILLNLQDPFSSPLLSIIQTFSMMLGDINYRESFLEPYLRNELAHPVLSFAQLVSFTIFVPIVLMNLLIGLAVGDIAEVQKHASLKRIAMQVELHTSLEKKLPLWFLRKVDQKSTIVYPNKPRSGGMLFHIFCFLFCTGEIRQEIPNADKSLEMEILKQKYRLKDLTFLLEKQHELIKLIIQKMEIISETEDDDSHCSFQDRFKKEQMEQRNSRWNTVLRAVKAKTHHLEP

Structure (SMILES)	mean maximal Ca^2+ signal RFU achieved 0-180 s (SD), TRPA1 (TRPA1)	mean maximal Ca^2+ signal RFU achieved 0-180 s (SD), TRM8 (TRPM8)	mean maximal Ca^2+ signal RFU achieved 0-180 s (SD), TRPV1 (TRPV1)	calcium fluxes (TRPV1)	initiation of a calcium flux (TRPV1)
C=C(C)[C@@H]1CCC(C)=C[C@H]1c1c(O)cc(CCCCC)cc1O [CBD, Cannabidiol]	1.28 (0.03) RFU	1.12 (0.02) RFU	11.88 (0.23) RFU	–	–
C=C(C)[C@@H]1CCC(C)=C[C@H]1c1c(O)cc(CCC)cc1O [CBDV, Cannabidivarin]	16.17 (2.68) RFU	3.89 (0.05) RFU	6.51 (0.07) RFU	–	–
CCCCCc1cc(O)c(C/C=C(\C)CCC=C(C)C)c(O)c1 [CBG, Cannabigerol]	10.22 (1.29) RFU	2.25 (0.46) RFU	0.41 (0.04) RFU	small calcium fluxes	did not initiate a calcium flux
CCCCCc1cc(O)c2c(c1)OC(C)(C)c1ccc(C)cc1-2 [CBN, Cannabinol]	10.97 (0.4) RFU	0.09 (0.01) RFU	0.89 (0.08) RFU	small and transient calcium transient fluxes	did not initiate a calcium flux

Reference: patent publication US20220387375A1, “TRPV1 ACTIVATION-MODULATING COMPLEX MIXTURES OF CANNABINOIDS AND/OR TERPENES” (GBS Global Biopharma, Inc., priority 2018, published 2022)
